PMC7717699, “Tuning the activity of iminosugars: novel N-alkylated deoxynojirimycin derivatives as strong BuChE inhibitors” (Journal of Enzyme Inhibition and Medicinal Chemistry, 2020)
Like-named read-outs stand apart in the source and are kept apart here.

Legend:
[1] = test system: β-glucosidase (almonds); test: β-Glucosidase inhibition (p-nitrophenyl glycoside substrate); type: biochemical; details: for Mode of inhibition β-Glucosidase: Cornish–Bowden method; for IC50: almond enzyme, pH 6.8, 25 °C; for Ki: binding to free enzyme, read-out: Kia β-Glucosidase
Method: (§1) For both families of enzymes used herein (glycosidases and cholinesterases), stock solutions of the inhibitors were prepared in DMSO; DMSO content was kept at 5% (V/V) for glycosidases and 1.25% (V/V) for cholinesterases. Enzymes were properly dissolved in water in a concentration in which the rate of the reaction when using [S] = 4 × KM is in the range 0.12–0.15 Abs/min. In both kinds of enzymes, an initial screening at 100 µM inhibitor concentration was performed, using the following substrate concentrations: [S] = 0.25 mM for α-glucosidase (Saccharomyces cerevisiae), 4.0 mM for β-glucosidase (almonds), 0.60 mM for α-galactosidase (green coffee beans), 0.51 mM for β-galactosidase (Escherichia coli), 1.5 mM for β-galactosidase (Aspergillus Oryzae), 0.12 mM for AChE (Electrophorus electricus), 0.11 mM for BuChE (equine serum). […] Each assay was run in duplicate.
(§2) Glycosidase assays were accomplished using the methodology reported by Bols and co-workers[30]. Each set of experiments is prepared in PS cuvettes using 0.1 M phosphate buffer (pH 6.8) and the corresponding o- or p-nitrophenyl glycopyranosides as substrates. Reactions were monitored at 25 °C by following the formation of the corresponding nitrophenolates at 400 nm (glucosidases and α-galactosidase) or 420 nm (β-galactosidases) over a time of 125 s.
(§3) For strong inhibitors, the mode of inhibition was determined using the Cornish–Bowden method, which involves the use of two different plots: 1/v vs. [I] (Dixon plot) and [S]/v vs. [I]. For the calculation of kinetic parameters (KM, Vmax) a nonlinear regression analysis (least squares fit, GraphPad Prism 8.01) was used. Data are expressed as the mean ± SD.
(§4) Assessment of the inhibitory capacity against glycosidases was accomplished using the methodology reported by Bols and co-workers[30]. p-Nitrophenyl glycosides (o- for β-galactosidases) were used as model substrates, and the release of the corresponding p-nitrophenolates at pH 6.8 was monitored spectrophotometrically (λmax = 400 or 420 nm for p- or o-nitrophenolates, respectively).

[2] = target: T1, α-glucosidase (Saccharomyces cerevisiae) (Saccharomyces cerevisiae, UniProt P53341); test: α-Glucosidase inhibition (p-nitrophenyl glycoside substrate); type: biochemical
T1 construct: purchased
T1 sequence (P53341 whole entry): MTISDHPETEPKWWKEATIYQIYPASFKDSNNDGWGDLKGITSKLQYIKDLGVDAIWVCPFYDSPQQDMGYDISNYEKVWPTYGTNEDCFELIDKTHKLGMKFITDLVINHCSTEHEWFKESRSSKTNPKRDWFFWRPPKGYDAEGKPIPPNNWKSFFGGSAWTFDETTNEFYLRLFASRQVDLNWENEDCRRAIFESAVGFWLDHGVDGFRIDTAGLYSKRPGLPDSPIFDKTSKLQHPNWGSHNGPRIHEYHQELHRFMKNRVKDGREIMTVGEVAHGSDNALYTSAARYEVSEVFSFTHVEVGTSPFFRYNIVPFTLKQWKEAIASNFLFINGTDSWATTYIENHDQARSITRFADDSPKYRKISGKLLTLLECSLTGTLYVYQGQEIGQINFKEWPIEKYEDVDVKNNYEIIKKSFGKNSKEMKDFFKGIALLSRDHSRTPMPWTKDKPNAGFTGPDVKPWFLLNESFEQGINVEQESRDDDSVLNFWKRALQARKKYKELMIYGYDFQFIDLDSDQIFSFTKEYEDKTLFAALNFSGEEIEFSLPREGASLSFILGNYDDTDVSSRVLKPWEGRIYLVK
Method: as §1, §2
(Dixon plot) and [S]/v vs. [I]. For the calculation of kinetic parameters (KM, Vmax) a nonlinear regression analysis (least squares fit, GraphPad Prism 8.01) was used. Data are expressed as the mean ± SD.
as §4

[3] = target: T2, β-galactosidase (Escherichia coli) (Escherichia coli, UniProt P00722); test: β-Galactosidase (E. coli) inhibition; type: biochemical
T2 construct: purchased
T2 sequence (P00722 2-1024 limits assumed): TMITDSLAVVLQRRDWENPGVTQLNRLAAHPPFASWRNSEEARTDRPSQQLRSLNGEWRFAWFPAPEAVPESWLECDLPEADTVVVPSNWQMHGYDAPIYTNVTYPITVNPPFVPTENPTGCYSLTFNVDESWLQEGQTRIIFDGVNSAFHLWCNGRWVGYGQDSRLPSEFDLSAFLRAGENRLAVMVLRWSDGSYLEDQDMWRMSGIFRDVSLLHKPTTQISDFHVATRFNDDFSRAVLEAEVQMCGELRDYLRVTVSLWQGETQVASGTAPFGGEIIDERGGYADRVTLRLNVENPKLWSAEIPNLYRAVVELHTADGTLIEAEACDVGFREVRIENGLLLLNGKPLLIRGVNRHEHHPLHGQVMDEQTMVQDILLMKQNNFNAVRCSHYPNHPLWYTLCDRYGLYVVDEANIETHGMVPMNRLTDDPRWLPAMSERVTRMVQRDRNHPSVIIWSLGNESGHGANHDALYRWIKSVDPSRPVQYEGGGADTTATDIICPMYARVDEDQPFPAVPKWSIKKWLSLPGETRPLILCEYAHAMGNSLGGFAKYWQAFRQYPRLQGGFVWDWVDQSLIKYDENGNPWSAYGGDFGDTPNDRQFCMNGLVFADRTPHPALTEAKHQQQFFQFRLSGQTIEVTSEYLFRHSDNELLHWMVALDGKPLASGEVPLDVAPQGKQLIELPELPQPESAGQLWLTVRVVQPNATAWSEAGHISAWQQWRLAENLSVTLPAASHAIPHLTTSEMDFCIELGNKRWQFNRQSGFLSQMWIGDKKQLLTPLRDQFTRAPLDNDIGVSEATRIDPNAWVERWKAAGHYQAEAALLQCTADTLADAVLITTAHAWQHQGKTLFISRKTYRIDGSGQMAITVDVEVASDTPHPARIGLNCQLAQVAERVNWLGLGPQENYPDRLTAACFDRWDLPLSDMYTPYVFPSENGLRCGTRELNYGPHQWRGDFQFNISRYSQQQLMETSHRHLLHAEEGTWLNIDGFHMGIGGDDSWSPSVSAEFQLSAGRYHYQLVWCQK
Method: as §1, §2, §4

[4] = target: T3, BuChE (equine serum) (Equus caballus, UniProt P81908); test: BuChE inhibition, Ellman's assay; type: biochemical; details: for Mode of inhibition BuChE: Cornish–Bowden method; for IC50: equine serum, pH 8.0, read-out: IC50 BuChE
T3 construct: 0.11 mM for BuChE (equine serum); from tissue; host or cells: equine serum
T3 sequence (P81908 whole entry): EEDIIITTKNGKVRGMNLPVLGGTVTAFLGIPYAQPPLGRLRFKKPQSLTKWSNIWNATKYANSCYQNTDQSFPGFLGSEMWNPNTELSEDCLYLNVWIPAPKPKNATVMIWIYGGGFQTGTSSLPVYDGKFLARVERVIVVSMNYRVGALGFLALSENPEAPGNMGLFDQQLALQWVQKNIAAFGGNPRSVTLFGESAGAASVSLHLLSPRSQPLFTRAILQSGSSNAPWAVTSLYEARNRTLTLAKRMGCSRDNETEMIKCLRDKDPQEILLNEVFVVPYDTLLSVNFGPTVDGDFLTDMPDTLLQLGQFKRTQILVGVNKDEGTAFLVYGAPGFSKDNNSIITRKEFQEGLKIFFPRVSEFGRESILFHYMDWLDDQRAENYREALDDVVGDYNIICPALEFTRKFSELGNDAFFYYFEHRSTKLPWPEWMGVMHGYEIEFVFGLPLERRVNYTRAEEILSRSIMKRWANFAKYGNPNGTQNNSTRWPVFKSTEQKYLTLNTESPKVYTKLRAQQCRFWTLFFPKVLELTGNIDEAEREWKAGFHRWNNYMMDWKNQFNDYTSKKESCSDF
Method: as §1
(§5) For cholinesterases, minor modifications on Ellman’s assay[31] were performed. The activity was measured in PS cuvettes containing […] (pH 8.0), 0.88 mM DTNB, and substrate (acetyl- and butyryl-thiocholine iodides for AChE and BuChE, respectively), The formation of the chromophore was monitored at 405 nm over a time of 125 s.
as §3
(§6) Derivatives 11 and 12 were tested also against AChE (Electrophorus electricus) and BuChE (equine serum), as recognised models for human cholinesterases due to their close structural resemblance. For that purpose, Ellman’s colorimetric assay was used; this is an indirect test in which acetyl and butyryl thiocholine iodides are used as model substrates, which upon interaction with the enzyme release thiocholine, which in turn reacts with the chromogen reagent 5,5′-dithiobis(2-nitrobenzoic acid (DTNB) to give 2-nitro-5-mercaptobenzoate (at pH 8.0). The monitoring of the latter at 405 nm furnishes the kinetic parameters.

[5] = target: T4, β-galactosidase (Aspergillus Oryzae) (Aspergillus oryzae, UniProt Q2UCU3); test: β-Galactosidase (A. oryzae) inhibition; type: biochemical
T4 construct: purchased
T4 sequence (Q2UCU3 19-1005): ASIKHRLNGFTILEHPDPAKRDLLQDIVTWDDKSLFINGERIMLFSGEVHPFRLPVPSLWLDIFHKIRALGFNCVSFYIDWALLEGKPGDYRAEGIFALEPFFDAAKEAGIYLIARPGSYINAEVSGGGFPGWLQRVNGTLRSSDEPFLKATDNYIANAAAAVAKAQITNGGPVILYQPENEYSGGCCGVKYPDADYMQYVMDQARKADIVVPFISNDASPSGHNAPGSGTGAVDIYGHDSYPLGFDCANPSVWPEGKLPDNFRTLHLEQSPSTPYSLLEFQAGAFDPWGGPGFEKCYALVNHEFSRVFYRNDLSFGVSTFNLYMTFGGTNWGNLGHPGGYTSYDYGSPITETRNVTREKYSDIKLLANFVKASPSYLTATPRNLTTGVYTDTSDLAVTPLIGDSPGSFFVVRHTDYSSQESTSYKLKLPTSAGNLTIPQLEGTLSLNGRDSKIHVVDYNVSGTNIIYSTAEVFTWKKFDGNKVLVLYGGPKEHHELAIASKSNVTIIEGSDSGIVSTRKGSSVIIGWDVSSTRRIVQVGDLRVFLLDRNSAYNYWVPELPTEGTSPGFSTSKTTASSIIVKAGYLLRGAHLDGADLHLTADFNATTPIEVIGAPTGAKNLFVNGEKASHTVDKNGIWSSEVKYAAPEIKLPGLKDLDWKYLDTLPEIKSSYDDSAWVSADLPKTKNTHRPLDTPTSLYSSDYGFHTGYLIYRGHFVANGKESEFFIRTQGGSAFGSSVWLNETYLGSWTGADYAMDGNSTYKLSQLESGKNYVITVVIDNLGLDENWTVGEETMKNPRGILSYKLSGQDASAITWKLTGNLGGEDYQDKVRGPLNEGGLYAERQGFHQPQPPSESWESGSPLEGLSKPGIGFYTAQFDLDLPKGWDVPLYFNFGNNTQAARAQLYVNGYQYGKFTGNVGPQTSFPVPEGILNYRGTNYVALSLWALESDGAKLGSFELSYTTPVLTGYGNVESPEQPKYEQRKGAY
Method: as §1, §2, §4

[6] = target: AChE (Electrophorus electricus) (Electrophorus electricus, UniProt O42275); test: AChE inhibition, Ellman's assay; type: biochemical; details: for Mode of inhibition AChE: Cornish–Bowden method; for IC50: Electrophorus electricus, pH 8.0, read-out: IC50 AChE
Chain of AChE (Electrophorus electricus) (O42275 24-633): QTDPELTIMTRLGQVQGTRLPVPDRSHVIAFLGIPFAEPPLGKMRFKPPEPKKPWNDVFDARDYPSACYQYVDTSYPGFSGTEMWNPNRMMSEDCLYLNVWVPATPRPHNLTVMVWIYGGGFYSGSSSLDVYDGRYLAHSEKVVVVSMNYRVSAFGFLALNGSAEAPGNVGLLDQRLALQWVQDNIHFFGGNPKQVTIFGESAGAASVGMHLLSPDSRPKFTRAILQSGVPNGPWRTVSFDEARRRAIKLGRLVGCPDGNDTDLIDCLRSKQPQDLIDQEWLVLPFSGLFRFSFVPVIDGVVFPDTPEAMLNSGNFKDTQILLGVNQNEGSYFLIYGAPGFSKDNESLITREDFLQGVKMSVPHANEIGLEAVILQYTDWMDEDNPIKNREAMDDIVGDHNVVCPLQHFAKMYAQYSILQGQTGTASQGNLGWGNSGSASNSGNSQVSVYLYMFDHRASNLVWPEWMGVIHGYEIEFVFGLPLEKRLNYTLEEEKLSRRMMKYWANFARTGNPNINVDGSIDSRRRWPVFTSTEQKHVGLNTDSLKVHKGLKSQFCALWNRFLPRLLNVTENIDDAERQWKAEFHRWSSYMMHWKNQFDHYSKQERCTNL
Method: as §1, §5, §3, §6

[7] = target: T5, α-galactosidase (green coffee beans) (Coffea arabica, UniProt Q42656); test: α-Galactosidase inhibition; type: biochemical
T5 construct: purchased; host or cells: green coffee beans
T5 sequence (Q42656 16-378): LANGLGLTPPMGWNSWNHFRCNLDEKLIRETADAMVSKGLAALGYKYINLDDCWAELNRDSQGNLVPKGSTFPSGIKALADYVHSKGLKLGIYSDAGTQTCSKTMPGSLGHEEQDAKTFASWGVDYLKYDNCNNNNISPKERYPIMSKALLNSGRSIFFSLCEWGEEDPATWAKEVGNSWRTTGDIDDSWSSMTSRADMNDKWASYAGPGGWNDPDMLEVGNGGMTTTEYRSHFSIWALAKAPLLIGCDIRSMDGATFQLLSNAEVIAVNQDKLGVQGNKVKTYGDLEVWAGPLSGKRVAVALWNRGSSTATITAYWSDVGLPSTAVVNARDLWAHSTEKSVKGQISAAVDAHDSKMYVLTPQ
Method: as §1, with “Enzymes” for “For both families of enzymes used herein (glycosidases and cholinesterases), stock solutions of the inhibitors were prepared in DMSO; DMSO content was kept at 5% (V/V) for glycosidases and 1.25% (V/V) for cholinesterases. Enzymes”
Glycosidase assays were accomplished using the methodology reported by Bols and co-workers[30]. Each set of experiments is prepared in PS cuvettes using 0.1 M phosphate buffer (pH 6.8) and the corresponding o- or p-nitrophenyl glycopyranosides as substrates.
as §4

[8] = cited from earlier work
[9] = binding to enzyme-substrate complex, read-out: Kib BuChE
[10] = binding to free enzyme, read-out: Kia BuChE
[11] = binding to enzyme-substrate complex, read-out: Kib AChE
[12] = binding to free enzyme, read-out: Kia AChE

Structure (SMILES) | Mode of inhibition β-Glucosidase [1] | IC50 [1] | Ki [1] | IC50 [2] | IC50 [3] | Mode of inhibition BuChE [4] | Ki [4, 9] | Ki [4, 10] | IC50 [4] | IC50 [5] | Mode of inhibition AChE [6] | IC50 [6] | Ki [6, 11] | Ki [6, 12] | IC50 [7] | pKa [8]
COc1cc(CCOCCCCCCN2C[C@H](O)[C@@H](O)[C@H](O)[C@H]2CO)ccc1O [Compound 11f] | Competitive | 8.2 µM | 9.6 µM | > 100 µM | > 100 µM | Mixed | 5 µM | 1.5 µM | 1.8 µM | > 100 µM | Non-competitive | 7.3 µM | 17 ± 5 µM | 17 ± 5 µM | > 100 µM | –
OC[C@@H]1[C@@H](O)[C@H](O)[C@@H](O)CN1CCCCCCOCCc1ccc2c(c1)OCO2 [Compound 11g] | Competitive | 8.4 µM | 9 µM | > 100 µM | > 100 µM | Non-competitive | 9.2 ± 1.9 µM | 9.2 ± 1.9 µM | 7.3 µM | > 100 µM | Mixed | 48 µM | 43 µM | 56 µM | > 100 µM | –
OC[C@@H]1[C@@H](O)[C@H](O)[C@@H](O)CN1CCCCCOCCc1ccccc1 [Compound 12a] | Competitive | 28 µM | 23 ± 4 µM | > 100 µM | > 100 µM | – | – | – | > 100 µM | > 100 µM | – | > 100 µM | – | – | > 100 µM | –
COc1ccc(CCOCCCCCN2C[C@H](O)[C@@H](O)[C@H](O)[C@H]2CO)cc1 [Compound 12c] | Competitive | 25 µM | 14 ± 6 µM | > 100 µM | > 100 µM | – | – | – | > 100 µM | > 100 µM | – | > 100 µM | – | – | > 100 µM | –
OC[C@@H]1[C@@H](O)[C@H](O)[C@@H](O)CN1CCCCCOCCc1ccc(O)c(O)c1 [Compound 12d] | – | > 50 µM | – | > 100 µM | – | – | – | – | > 100 µM | – | – | > 100 µM | – | – | – | –
CCCCN1C[C@H](O)[C@@H](O)[C@H](O)[C@H]1CO [N-butyl-DNJ, N-butyl-1-deoxynojirimycin] | – | – | – | – | – | – | – | – | – | – | – | – | – | – | – | 7.1
CCCCCCCCCN1C[C@H](O)[C@@H](O)[C@H](O)[C@H]1CO [N-nonyl-DNJ] | – | – | – | – | – | – | – | – | – | – | – | – | – | – | – | 6.7
